# Values joined by “and” are separate entries in the source; they are usually repeats but may differ in a detail not shown here. Equal values may be shown once. Inconclusive results and toxic doses are left out.
# System: P388 leukemia ip, CD2F1 mice, survival T/C
# Experiment: NCI In Vivo Anticancer Drug Screen. Data for tumor model P388 Leukemia (intraperitoneal) in CD2F1 (CDF1) mice
# Details: endpoint: median survival time, higher = longer survival
# Outline: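 Mice carrying the transplanted tumor received test compound or vehicle. Survival was recorded in each group, and the value is the treated-group measurement divided by that of the vehicle-treated control group.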
# [1] = dose: 50.0 mg/kg/injection, schedule: Q01DX005 (ip), vehicle: saline with Tween-80
# [2] = dose: 100.0 mg/kg/injection, schedule: Q01DX005 (ip), vehicle: saline with Tween-80
# [3] = dose: 200.0 mg/kg/injection, schedule: Q01DX005 (ip), vehicle: saline with Tween-80
# [4] = dose: 12.5 mg/kg/injection, schedule: Q01DX009 (ip), vehicle: saline
# [5] = dose: 25.0 mg/kg/injection, schedule: Q01DX009 (ip), vehicle: saline
# [6] = dose: 50.0 mg/kg/injection, schedule: Q01DX009 (ip), vehicle: saline
# [7] = dose: 100.0 mg/kg/injection, schedule: Q01DX009 (ip), vehicle: saline
# [8] = dose: 200.0 mg/kg/injection, schedule: Q01DX009 (ip), vehicle: saline
# [9] = dose: 50.0 mg/kg/injection, schedule: Q01DX009 (ip), vehicle: saline with Tween-80
# [10] = dose: 50.0 mg/kg/injection, schedule: Q01DX005 (ip), vehicle: saline
# [11] = dose: 100.0 mg/kg/injection, schedule: Q01DX005 (ip), vehicle: saline
# [12] = dose: 12.5 mg/kg/injection, schedule: Q04DX003 (ip), vehicle: saline with Tween-80
# [13] = dose: 25.0 mg/kg/injection, schedule: Q04DX003 (ip), vehicle: saline with Tween-80
# [14] = dose: 100.0 mg/kg/injection, schedule: Q04DX003 (ip), vehicle: saline with Tween-80
# [15] = dose: 200.0 mg/kg/injection, schedule: Q04DX003 (ip), vehicle: saline with Tween-80
# [16] = dose: 60.0 mg/kg/injection, schedule: Q01DX005 (ip), vehicle: saline with Tween-80
# [17] = dose: 120.0 mg/kg/injection, schedule: Q01DX005 (ip), vehicle: saline with Tween-80
# [18] = dose: 50.0 mg/kg/injection, schedule: Q01DX009 (ip), vehicle: Klucel (hydroxypropylcellulose) (HPC)
# [19] = dose: 100.0 mg/kg/injection, schedule: Q01DX009 (ip), vehicle: Klucel (hydroxypropylcellulose) (HPC)
# [20] = dose: 200.0 mg/kg/injection, schedule: Q01DX009 (ip), vehicle: Klucel (hydroxypropylcellulose) (HPC)
# [21] = dose: 50.0 mg/kg/injection, schedule: Q04DX003 (ip), vehicle: saline with Tween-80
# [22] = dose: 400.0 mg/kg/injection, schedule: Q04DX003 (ip), vehicle: saline with Tween-80
# [23] = dose: 12.5 mg/kg/injection, schedule: Q01DX009 (ip), vehicle: Klucel (hydroxypropylcellulose) (HPC)
# [24] = dose: 25.0 mg/kg/injection, schedule: Q01DX009 (ip), vehicle: Klucel (hydroxypropylcellulose) (HPC)
smiles,measurement,setting,value
CCCC1OCC(O)C(C(O)C(=O)CN(Cc2ccccc2)Cc2ccccc2)O1 (configuration not stated),T/C,[1],100 % of control
same,T/C,[2],98 % of control
same,T/C,[3],98 % of control
Cc1ccc(N)c(C(=O)Nc2ccc(Br)cc2)c1,T/C,[1],101 % of control
same,T/C,[2],101 % of control
same,T/C,[3],95 % of control
CN1CCC2OC2C1=NC#N (configuration not stated),T/C,[4],102 % of control
same,T/C,[5],101 % of control
same,T/C,[6],105 % of control
same,T/C,[7],101 % of control
same,T/C,[8],97 % of control
O=C(Nc1cccc2ccccc12)Oc1cccc2cccnc12,T/C,"dose: 25.0 mg/kg/injection, schedule: Q01DX009 (ip), vehicle: saline with Tween-80",89 % of control
same,T/C,[9],86 % of control
same,T/C,"dose: 100.0 mg/kg/injection, schedule: Q01DX009 (ip), vehicle: saline with Tween-80",89 % of control
Cc1nc2ncnc(Cl)c2[nH]1,T/C,[10],99 % of control
same,T/C,[11],105 % of control
same,T/C,"dose: 200.0 mg/kg/injection, schedule: Q01DX005 (ip), vehicle: saline",96 % of control
O=[N+]([O-])c1nncs1,T/C,"dose: 6.25 mg/kg/injection, schedule: Q04DX003 (ip), vehicle: saline with Tween-80",105 % of control
same,T/C,[12],100 % of control
same,T/C,[13],110 % of control
Cc1cc2c(cc1C)NC(C)CC(=O)N2 (configuration not stated),T/C,[14],109 % of control
same,T/C,[15],95 % of control
CC(=O)NC[Si](C)(C)C,T/C,"dose: 60.0 mg/kg/injection, schedule: Q01DX005 (ip), vehicle: saline",93 % of control
same,T/C,"dose: 120.0 mg/kg/injection, schedule: Q01DX005 (ip), vehicle: saline",96 % of control
same,T/C,"dose: 240.0 mg/kg/injection, schedule: Q01DX005 (ip), vehicle: saline",103 % of control
C1=Cc2ccccc2C(=C2CCOCC2)c2ccccc21,T/C,[6],113 % of control
same,T/C,[7],100 % of control
same,T/C,[8],94 % of control
O=C1OC(=O)C2C1C1c3ccccc3C2(O)c2ccccc21 (configuration not stated),T/C,"dose: 30.0 mg/kg/injection, schedule: Q01DX005 (ip), vehicle: saline with Tween-80",106 % of control
same,T/C,[16],100 % of control
same,T/C,[17],94 % of control
CCCOc1ccc(C#N)cc1,T/C,[18],102 % of control
same,T/C,[19],108 % of control
same,T/C,[20],99 % of control
COc1cc(CC2c3cc(OC)c(OC)cc3CCN2C)c(Oc2cc3c(cc2OC)-c2c(O)c(OC)cc4c2C(C3)N(C)CC4)cc1OC (configuration not stated),T/C,[12],101 % of control
same,T/C,[13],101 % of control
same,T/C,[21],100 % of control
same,T/C,[15],89 % of control
same,T/C,[22],97 % of control
C[C@]12CC[C@H]3[C@@H](CCC4=CC(=O)CC[C@@]43C)[C@@H]1CC[C@@H]2OC(=O)Cc1ccc(N(CCCl)CCCl)cc1,T/C,[14],112 % of control
same,T/C,"dose: 264.0 mg/kg/injection, schedule: Q04DX003 (ip), vehicle: saline with Tween-80",109 % of control
CSc1nc2ccc(N3C(=O)C=CC3=O)cc2s1,T/C,"dose: 3.12 mg/kg/injection, schedule: Q01DX009 (ip), vehicle: Klucel (hydroxypropylcellulose) (HPC)",102 % of control
same,T/C,"dose: 6.25 mg/kg/injection, schedule: Q01DX009 (ip), vehicle: Klucel (hydroxypropylcellulose) (HPC)",105 % of control
same,T/C,[23],101 % of control
CC(C)c1nc2ccc(Cl)cc2[nH]1,T/C,[1],105 % of control
same,T/C,[2],100 % of control
COc1cc(C)c2sc3ccccc3c(=O)c2c1NCCN(C)C,T/C,[4],100 % of control and 104 % of control and 108 % of control
same,T/C,[5],99 % of control and 108 % of control and 110 % of control
same,T/C,[9],96 % of control
same,T/C,[7],111 % of control and 112 % of control
CCOC(=O)Cc1ccc(N(CCO)CCO)cc1,T/C,[16],100 % of control
same,T/C,[17],103 % of control
same,T/C,"dose: 240.0 mg/kg/injection, schedule: Q01DX005 (ip), vehicle: saline with Tween-80",101 % of control
O=C(CCl)Nc1ccccc1S(=O)(=O)F,T/C,[23],100 % of control
same,T/C,[24],107 % of control
same,T/C,[18],96 % of control
same,T/C,[19],107 % of control
CC1=NN(C(=O)c2cccnc2)C(=O)C1N=Nc1ccc(S(=O)(=O)N=C(N)N)cc1 (configuration not stated),T/C,[14],91 % of control
same,T/C,[15],92 % of control
same,T/C,[22],88 % of control
CCOC(=O)C1=C(C)O/C(=C/c2ccco2)C1=O,T/C,[24],103 % of control
same,T/C,[18],109 % of control
same,T/C,[19],110 % of control and 111 % of control
CCCCCCN1CCS(=O)(=O)CC1,T/C,[18],91 % of control
same,T/C,[19],94 % of control
same,T/C,[20],90 % of control
Cc1ccc2nc3[nH]c(=O)[nH]c(=O)c3c(C(N)=O)c2c1,T/C,"dose: 50.0 mg/kg/injection, schedule: Q01DX005 (ip), vehicle: Klucel (hydroxypropylcellulose) (HPC)",100 % of control
same,T/C,"dose: 100.0 mg/kg/injection, schedule: Q01DX005 (ip), vehicle: Klucel (hydroxypropylcellulose) (HPC)",94 % of control
same,T/C,"dose: 200.0 mg/kg/injection, schedule: Q01DX005 (ip), vehicle: Klucel (hydroxypropylcellulose) (HPC)",94 % of control
O=NN(CCF)C(=O)NC12CC3CC(CC(C3)C1)C2,T/C,"dose: 22.0 mg/kg/injection, schedule: Q04DX003 (ip), vehicle: saline with Tween-80",175 % of control
same,T/C,"dose: 33.0 mg/kg/injection, schedule: Q04DX003 (ip), vehicle: saline with Tween-80",195 % of control
same,T/C,[21],225 % of control
same,T/C,"dose: 75.0 mg/kg/injection, schedule: Q04DX003 (ip), vehicle: saline with Tween-80",240 % of control
same,T/C,"dose: 100.0 mg/kg/injection, schedule: Q04DX003 (ip), vehicle: Klucel (hydroxypropylcellulose) (HPC)",259 % of control
CCN(CC)CCCC(C)N=C(Nc1ccccc1)c1ccc(Cl)cc1 (configuration not stated),T/C,[10],104 % of control
same,T/C,[11],102 % of control
COc1cc(NC(C)=O)c(OC)c2c(=O)cc(C(=O)O)[nH]c12,T/C,"dose: 100.0 mg/kg/injection, schedule: Q01DX001 (ip), vehicle: Klucel (hydroxypropylcellulose) (HPC)",93 % of control
same,T/C,"dose: 200.0 mg/kg/injection, schedule: Q01DX001 (ip), vehicle: Klucel (hydroxypropylcellulose) (HPC)",98 % of control
same,T/C,"dose: 400.0 mg/kg/injection, schedule: Q01DX001 (ip), vehicle: Klucel (hydroxypropylcellulose) (HPC)",99 % of control
CN1CC[N+](C)=C1c1nc2ccccc2n1C,T/C,"dose: 12.5 mg/kg/injection, schedule: Q01DX009 (ip), vehicle: suspension in saline",105 % of control
same,T/C,"dose: 25.0 mg/kg/injection, schedule: Q01DX009 (ip), vehicle: suspension in saline",117 % of control
same,T/C,"dose: 50.0 mg/kg/injection, schedule: Q01DX009 (ip), vehicle: suspension in saline",118 % of control
O=C1C=C(NC(=O)C(F)(F)F)C(=O)c2c1[nH]c(=O)[nH]c2=O,T/C,"dose: 6.25 mg/kg/injection, schedule: Q01DX005 (ip), vehicle: DMSO",109 % of control
same,T/C,"dose: 12.5 mg/kg/injection, schedule: Q01DX005 (ip), vehicle: DMSO",103 % of control
same,T/C,"dose: 25.0 mg/kg/injection, schedule: Q01DX005 (ip), vehicle: DMSO",103 % of control
same,T/C,"dose: 50.0 mg/kg/injection, schedule: Q01DX005 (ip), vehicle: DMSO",110 % of control
same,T/C,"dose: 50.0 mg/kg/injection, schedule: Q01DX005 (ip), vehicle: other",98 % of control
same,T/C,"dose: 100.0 mg/kg/injection, schedule: Q01DX005 (ip), vehicle: other",104 % of control
same,T/C,"dose: 200.0 mg/kg/injection, schedule: Q01DX005 (ip), vehicle: other",101 % of control
Cc1cc(=O)n(-c2cc(C)c3cc(Cl)ccc3n2)[nH]1,T/C,"dose: 100.0 mg/kg/injection, schedule: Q01DX001 (ip), vehicle: saline with Tween-80",93 % of control
same,T/C,"dose: 200.0 mg/kg/injection, schedule: Q01DX001 (ip), vehicle: saline with Tween-80",94 % of control
same,T/C,"dose: 400.0 mg/kg/injection, schedule: Q01DX001 (ip), vehicle: saline with Tween-80",104 % of control

# From PubChem BioAssay AID330 (DTP/NCI, 2004)
